We go through two compounds from patent US20120208776A1 (priority 2002, published 2012).

The test system of one data set is MCF7 cells. In words: Western-blot analysis. In kind it is cell-based, human. As for the experimental part:
Cells were treated for increasing times with approximately the IC50 concentration, or twice the IC50 concentration, of actein. The cells were harvested, washed with PBS, and sonicated in extraction buffer according to the procedure of Han et al. (Han et al., Stable overexpression of cyclin D1 in a human mammary epithelial cell line prolongs the S-phase, and inhibits growth. Oncogene, 10:953-61, 1995). The lysates were subjected to electrophoresis on a 10% or 12.5% SDS-polyacrylamide gel, and then transferred to a polyvinylidene difluoride (PVDF) membrane. The membrane was blocked with milk protein, and incubated with a solution containing the primary antibody against the following: cyclin D1 (Upstate Biotechnology, Lake Placid, N.Y.), p21^cip1 (Oncogene Research Products, Darmstadt, Germany), ppRb (ser 780, Medical and Biological Laboratories, Nagoya, Japan), cdk4 (Upstate Biotechnology, Lake Placid, N.Y.), EGFR (clone-74, Transduction Laboratories, Lexington, Ky.), p-EGFR (phospho (Y1173)-EGFR) (Cell Signaling, Beverly, Mass.), actin (Sigma, St. Louis, Mo.), Her-2/neu (Cell Signaling, Beverly, Mass.), or phospho-(Y1248)-Her-2/neu (Cell Signaling, Beverly, Mass.)), IκB (Sant Cruz Biotechnolgy, Santa Cruz, Calif.), IκκB (Sigma, St. Louis, Mo.) and PPARγ (Santa Cruz biotechnology, Santa Cruz, Calif.) (Masuda et al., Epigallocatechin-3-gallate inhibits activation of HER-2/neu and downstream signaling pathways in human head and neck and breast carcinoma cells. Clin. Cancer Res., 9: 3486-91, 2003). The membrane was washed, and incubated with horseradish peroxidase conjugated secondary antibody.
Protein bands were visualized with the ECL-enhanced chemiluminescence system, according to the manufacturer's directions (Amersham Pharmacia Biotech) (Sgambato et al., Overexpression of p27 (Kip1) inhibits the growth of both normal and transformed human mammary epithelial cells. Cancer Research, 58:3448-54, 1998). The staining intensities of the visualized blots were quantified using NIH image software. For each protein, the relative band intensities were determined by comparing treated samples with untreated controls. These values were then normalized, using β-actin as an internal control.

The test system of a further data set is cyclin D1 promoter. In words: Cyclin D1 reporter assay (luciferase). In kind it is cell-based, human. The following applies: MDA-MB-453, 24 h. As for the experimental part:
(§1) The cyclin D1 promoter luciferase reporter plasmid, 1745CD1LUC, was prepared by Dr. R. Pestell (Albert Einstein Cancer Center, New York, N.Y.). The method used for transient transfection reporter assays was previously described (Soh et al., Novel roles of specific isoforms of protein kinase C in activation of the c-fos serum response element. Molecular and Cellular Biology, 19:1313-24, 1999). Using lipofectin, triplicate samples of MDA-MB-453 breast cancer cells (1×10^5 cells in 35-mm plates) were co-transfected using DNA of the indicated reporter plasmid (1 μg) and the β-gal plasmid as an internal control (10 μg of the pCMV-b-gal plasmid) in opti-MEM 1 medium (Life Technologies, Inc.). After 24 h, the medium was replaced with serum-free medium containing the indicated concentrations of actein. After 24 h, cells were harvested, and luciferase activity was determined with the luciferase assay system (Promega Corp. Madison, Wis.); β-gal activities were determined with the β-gal enzyme assay system (Promega). Luciferase activities were normalized to β-gal activities, to correct for differences in transfection efficiency.

Data set [1] deals with MCF10F normal mammary epithelial cells. In words: Cell proliferation, cell count (Coulter Counter). In kind it is cell-based, human. Conditions: 96 h.
Data set [2] deals with rat liver gene expression. In words: AffyLimma microarray analysis of rat liver, actein. In kind it is in vivo, Sprague-Dawley rats. The following applies: for number of genes significantly altered (B>0): actein; for Fold-change relative to control, BZRP, Microarray / Fold-change relative to control, CCND1, Microarray / Fold-change relative to control, CYP7A1, Microarray / Fold-change relative to control, HMGCR, Microarray / Fold-change relative to control, HMGCS1, Microarray / Fold-change relative to control, HSD17B7, Microarray / Fold-change relative to control, ID3, Microarray / Fold-change relative to control, NQO1, Microarray / Fold-change relative to control, S100A9, Microarray: rat liver, 35.7 mg/kg.

In the next data set the test system is NF-κB promoter. The experiment in a line: NF-κB reporter assay (luciferase). In kind it is cell-based, human. Conditions: MDA-MB-453, 24 h. How it is done: as §1
NF-κB reporter assay. The NE-κB promoter luciferase reporter plasmid was from Dr. Jae Won Soh. The method for transient transfection reporter assays was as previously described.

The subject of a further data set is Na^+-K^+-ATPase. In words: Enzymatic assay of adenosine 5′-triphosphatase. In kind it is biochemical. Conditions: 20 μM. As for the experimental part:
Enzymatic assay of adenosine 5′-triphosphatase. The enzymatic assay of ATPase (adenosine 5′-triphosphatase, EC 3.6.1.3) followed the Sigma Prod. […] [P] was determined by the Taussky-Shorr method.

Each structure is given as a SMILES string. In brackets after ≈: the same amount, converted by molar mass. Several values for one entry are separate records, joined by “and”; a condition that tells them apart may be missing. Equal entries are not always repeated.

Broadly, the IC50 is the midpoint of a concentration-inhibition curve. Higher therefore signals weaker potency in that assay. For the compound `CC(=O)O[C@@H]1C[C@@]23C[C@@]24CC[C@H](O[C@@H]2OC[C@@H](O)[C@H](O)[C@H]2O)C(C)(C)[C@@H]4CC[C@H]3[C@]2(C)C[C@@H]3O[C@]4(C[C@@H](C)[C@@H]3[C@@]12C)O[C@H](O)[C@@]1(C)O[C@@H]41` [actein], the “cellular level of cyclin D1” value in the data set on MCF7 cells (40 μg/ml, 24 h) was “almost a complete loss”. In addition, the “level of EGFR” value in the data set on MCF7 cells (20 or 40 μg/ml) is recorded as “not significantly affected”. Moreover, the “p21cip1 band intensity relative to β-actin” value in the data set with MCF7 cells (3 h, 20 μg/ml) is 1.47 fold; with MCF7 cells (3 h, 40 μg/ml), 1.17 fold and 1 fold; in the data set with MCF7 cells (10 h, 20 μg/ml), 1.75 fold; in the data set with MCF7 cells (10 h, 40 μg/ml), 1.37 fold; in the data set with MCF7 cells (24 h, 20 μg/ml) it was 0.94 fold; with MCF7 cells (24 h, 40 μg/ml), 0.78 fold. In addition, the “ppRb band intensity relative to β-actin” value in the data set on MCF7 cells (3 h, 20 μg/ml) is 1.51 fold; in the data set on MCF7 cells (3 h, 40 μg/ml), 1.59 fold; in the data set with MCF7 cells (10 h, 20 μg/ml), 0.61 fold; with MCF7 cells (10 h, 40 μg/ml) it was 0.64 fold; in the data set on MCF7 cells (24 h, 20 μg/ml), 0.80 fold and 0.8 fold; in the data set with MCF7 cells (24 h, 40 μg/ml), 0.43 fold. Moreover, the entries for the “cyclin D1 promoter activity” value with cyclin D1 promoter (20 μg/ml) and with cyclin D1 promoter (40 μg/ml) were 0.87 fold and 0.093 fold, respectively. This compound registered a concentration for half-maximal inhibition (IC50) in data set [1] (Homo sapiens, MCF-10F, MCF10F cells) of 42 µg/mL (≈ 62.1 µM). Also, the cells alive in data set [1] (MCF10F, 20 μg/ml) is on record as 63.8%±1.4. Also, the “number of genes significantly altered (B>0)” value in data set [2] (6 hours) came out at 0; in data set [2] (24 hours), 109. Besides, the “Fold-change relative to control, BZRP, Microarray” value in data set [2] (6 h) was −0.12; in data set [2] (24 h) it was 1.51. For the same compound, the entries for the “Fold-change relative to control, CCND1, Microarray” value in data set [2] (6 h) and in data set [2] (24 h) were 0.57 and −2.30, respectively. For the same compound, the “Fold-change relative to control, CYP7A1, Microarray” value in data set [2] (6 h) came out at 0.045; in data set [2] (24 h), 2.04. The “Fold-change relative to control, HMGCR, Microarray” value in data set [2] (6 h) is listed as −0.61; in data set [2] (24 h) it was 1.12. Moreover, the entries for the “Fold-change relative to control, HMGCS1, Microarray” value in data set [2] (6 h) and in data set [2] (24 h) were −0.66 and 1.11, respectively. Also, the “Fold-change relative to control, HSD17B7, Microarray” value is listed as −0.99 in data set [2] (6 h) and 2.11 in data set [2] (24 h). The “Fold-change relative to control, ID3, Microarray” value in data set [2] (6 h) was 0.19; in data set [2] (24 h), −0.58. Besides, the “Fold-change relative to control, NQO1, Microarray” value in data set [2] (6 h) is on record as −0.64; in data set [2] (24 h), 1.45. In addition, the “Fold-change relative to control, S100A9, Microarray” value in data set [2] (6 h) was −0.64; in data set [2] (24 h) it was 3.01. The NF-kB promoter activity in the data set with NF-κB promoter (20 μg/ml) is 1.59 fold; in the data set on NF-κB promoter (40 μg/ml), 0.12 fold.

`C[C@H]1O[C@@H](O[C@H]2[C@@H](O)C[C@H](O[C@H]3[C@@H](O)C[C@H](O[C@H]4CC[C@@]5(C)[C@H](CC[C@@H]6[C@@H]5CC[C@]5(C)[C@@H](C7=CC(=O)OC7)CC[C@]65O)C4)O[C@@H]3C)O[C@@H]2C)C[C@H](O)[C@@H]1O` [digitoxin]: the “percent inhibition of in vitro Na^+-K^+-ATPase activity” value with Na^+-K^+-ATPase was 35.2%.
